Measurements as given in patent publication US12378250B2, “Tricyclic compound as IRAK4 inhibitor” (KOREA RESEARCH INSTITUTE OF CHEMICAL TECHNOLOGY, priority 2018, dated 2025).

How the values were obtained:
[1] = tested on: TNF-α secretion, peripheral blood mononuclear cells (PBMCs); experiment: Suppression of TNF-α secretion in LPS-treated PBMCs (ELISA); assay type: cell-based; conditions: PBMC, 100 ng/ml LPS, 24 hours, read-out: TNF-α, % inhibition degree
Experimental: (§1) Peripheral blood mononuclear cells (PBMCs) isolated from whole blood were distributed in a 96-well plate. TNF-α was aliquoted at a density of 1×10^5 cells/well, IFN-α was aliquoted at a density of 2×10^5 cells/well, and TNF-α and IFN-α were treated with a compound diluted to 4-fold of a final concentration and totally cultured for 30 minutes. TNF-α was treated with 100 ng/ml lipopolysaccharide (LPS), IFN-α was treated with 500 nM ODN2216 (CpGTLR9 stimulator), and TNF-α and IFN-α were further cultured for 24 hours and 72 hours, respectively. An enzyme-linked immunosorbent assay (ELISA) was performed on TNF-α and IFN-α using an ELISA kit manufactured by BD Biosciences and an ELISA kit manufactured by PBL Assay Science, Inc., respectively. A cell supernatant and a standard drug were put into the ELISA plates and reacted for 2 hours. The plates were washed and a measurement antibody and streptavidin-HRP were sequentially added thereto. After the plates were washed, a TMB substrate was added thereto and reacted in a dark place. The reaction was stopped by adding a stop solution thereto, and the absorbance at 450 nm and 570 nm was measured using an absorber (OPTIMax tunable microplate reader, molecular devices). The experimental results are shown in [Table 2].

[2] = biological target: T1, IRAK4 enzyme (Homo sapiens, UniProt Q9NWZ3); experiment: IRAK4 enzyme inhibition degree (bead-based kinase assay, peptide substrate BMKC-2, 100 μM ATP); assay type: biochemical; conditions: for inhibition at 1 µM: compound 1 μM
T1 sequence (Q9NWZ3 1-460): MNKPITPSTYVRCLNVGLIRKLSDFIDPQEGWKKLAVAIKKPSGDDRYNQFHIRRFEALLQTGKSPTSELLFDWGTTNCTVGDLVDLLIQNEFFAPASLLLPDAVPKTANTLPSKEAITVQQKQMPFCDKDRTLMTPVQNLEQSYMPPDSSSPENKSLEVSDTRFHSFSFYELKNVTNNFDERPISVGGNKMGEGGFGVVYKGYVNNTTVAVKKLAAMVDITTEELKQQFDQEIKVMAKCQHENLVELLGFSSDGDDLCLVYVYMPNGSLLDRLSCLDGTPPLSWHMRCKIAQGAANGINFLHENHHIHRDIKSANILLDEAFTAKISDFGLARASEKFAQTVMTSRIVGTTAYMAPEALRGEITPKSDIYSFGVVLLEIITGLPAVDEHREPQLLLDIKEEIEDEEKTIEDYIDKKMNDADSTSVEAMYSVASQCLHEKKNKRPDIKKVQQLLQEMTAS
Experimental: 2.5 μl of a compound diluted to 4-fold of a final concentration was put into a 384-well white plate (low volume). 2.5 μl of 0.4 ng/μl IRAK4 enzyme was added thereto, and the resulting mixture was totally reacted for 10 minutes. 5 μl of a mixed liquid of a 6 μM peptide substrate (BMKC-2) and 100 μM ATP was added thereto, the resulting mixture was reacted at room temperature for 60 minutes, then 2.5 μl of 10 mM EDTA was added thereto, and the resulting mixture was reacted again for 10 minutes. 40 nM anti-phospho Thr antibody was aliquoted to 2.5 μl each, 5 μl of a mixed solution of a 160 μl/ml acceptor bead and a donor bead was added thereto, and then the resulting mixture was reacted at room temperature for 60 minutes. Fluorescence signals were measured using a bead experimental apparatus (Fusion alpha-FP Microplate Reader, Perkin Elmer Inc.).
From the detected signal, an activity inhibition rate [% inhibition degree=(the average value of a compound−the average value of a negative control)/(the average value of a positive control−the average value of a negative control)×100] was calculated, and is shown in [Table 1]. Further, a % inhibition degree of the compound at each concentration was obtained, and then a 50% inhibition concentration (IC50 value) was analyzed by a non-linear regression analysis.

[3] = tested on: IFN-α secretion, peripheral blood mononuclear cells (PBMCs); experiment: Suppression of IFN-α secretion in ODN2216-treated PBMCs (ELISA); assay type: cell-based; conditions: PBMC, 500 nM ODN2216, 72 hours, read-out: IFN-α, % inhibition degree
Experimental: as §1

[4] = tested on: ISG promoter, THP1-Lucia™ ISG cell line; experiment: ISG promoter inhibition, THP1-Lucia ISG cell line; assay type: cell-based; conditions: 1 μg/ml Poly(dA:dT)/LyoVec, 24 hours, read-out: ISG, % inhibition degree
Experimental: (§2) A THP1-Lucia™ NF-κB cell line (Invivogen) was used in an NF-κB inhibition experiment, and a THP1-Lucia™ ISG cell line was used in an ISG inhibition experiment. In the NF-κB inhibition experiment, cells were planted at a density of 1×10^4 cells/well in a 96-well plate, and in the ISG inhibition experiment, cells were planted at a density of 2×10^4 cells/well in a 96-well plate. The cells were treated with a compound diluted to 4-fold of a final concentration, and totally cultured for 30 minutes. NF-κB was treated with 100 ng/ml lipopolysaccharide (LPS), ISG was treated with a stimulator of 1 μg/ml Poly(dA:dT)/LyoVec, and NF-κB and ISG were cultured for 24 hours. 10 μl of a cell supernatant was taken and transferred to a 96-well plate. 50 μl of a Quanti-luc solution was aliquoted using an automatic aliquoter of a measurer (Envision Multilabel Plate Reader, Perkin Elmer, Inc.), and light emission signals were measured.

[5] = tested on: NF-κB promoter, THP1-Lucia™ NF-κB cell line; experiment: NF-κB promoter inhibition, THP1-Lucia NF-κB cell line; assay type: cell-based; conditions: 100 ng/ml LPS, 24 hours, read-out: NF-κB, % inhibition degree
Experimental: as §2

| Compound | inhibition at 0.1 µM [1] [%] | inhibition at 1 µM [1] [%] | IC50 [2] [nM] | inhibition at 1 µM [2] [%] | inhibition at 0.1 µM [3] [%] | inhibition at 1 µM [3] [%] | inhibition at 0.1 µM [4] [%] | inhibition at 1 µM [4] [%] | inhibition at 0.1 µM [5] [%] | inhibition at 1 µM [5] [%] |
| --- | --- | --- | --- | --- | --- | --- | --- | --- | --- | --- |
| Fc1cc(F)cc(-c2ccc3[nH]c4ncnc(N[C@H]5CC[C@H](N6CCOCC6)CC5)c4c3c2)c1 [Compound 6aal, 6-(3,5-difluorophenyl)-N-(trans-4-morpholinocyclohexyl)-9H-pyrimido[4,5-b]indole-4-amine] | 13 | 57 | 151 | 99 | 18 | 70 | 1 | 17 | < 1 | 15 |
| Cn1cc(-c2ccc3[nH]c4ncnc(N[C@H]5CC[C@H](N(C)C)CC5)c4c3c2)cn1 [Compound 6abb, trans-N1,N1-dimethyl-N4-(6-(1-methyl-1H-pyrazol-4-yl)-9H-pyrimido[4,5-b]indol-4-yl)cyclohexane-1,4-diamine] | 17.9 | 79.4 | 10 | 82 | 54 | 90.4 | 42 | 73 | 50 | 83 |
| c1cc(-c2ccc3[nH]c4ncnc(Nc5ccc(N6CCNCC6)cc5)c4c3c2)ccn1 [Compound 6agba, N-(4-(piperazin-1-yl)phenyl)-6-(pyridin-4-yl)-9H-pyrimido[4,5-b]indole-4-amine] | 26 | 87 | 1190 | 42 | 56 | 74 | 6 | 8 | < 1 | 6 |
| COc1ccc(-c2ccc3[nH]c4ncnc(N[C@H]5CC[C@H](N6CCOCC6)CC5)c4c3c2)cn1 [Compound 6aah, 6-(6-methoxypyridin-3-yl)-N-(trans-4-morpholinocyclohexyl)-9H-pyrimido[4,5-b]indole-4-amine] | 16 | 67 | 40 | 100 | 15 | 79 | 10 | 47 | 19 | 63 |
| CN(C)CCOc1cncc(-c2ccc3[nH]c4ncnc(N[C@H]5CC[C@H](N6CCOCC6)CC5)c4c3c2)c1 [Compound 6aag, 6-(5-(2-(dimethylamino)ethoxy)pyridin-3-yl)-N-(trans-4-morpholinocyclohexyl)-9H-pyrimido[4,5-b]indole-4-amine] | 16.7 | 51.4 | 31 | 82 | 6.4 | 89.5 | 20 | 52 | 12 | 37 |
| c1ncc(-c2ccc3[nH]c4ncnc(N[C@H]5CC[C@H](N6CCOCC6)CC5)c4c3c2)cn1 [Compound 6aac, N-(trans-4-morpholinocyclohexyl)-6-(pyrimidin-5-yl)-9H-pyrimido[4,5-b]indole-4-amine] | 24 | 86 | 12.6 | 100 | 21 | 84 | 7 | 45 | 17 | 64 |
| COc1cccc(-c2ccc3[nH]c4ncnc(N[C@H]5CC[C@H](N6CCOCC6)CC5)c4c3c2)c1 [Compound 6aaj, 6-(3-methoxyphenyl)-N-(trans-4-morpholinocyclohexyl)-9H-pyrimido[4,5-b]indole-4-amine] | 3.2 | 30 | 159 | 99 | 6.4 | 56 | 14 | 20 | < 1 | 33 |
| COc1cncc(-c2ccc3[nH]c4nccc(N[C@H]5CC[C@H](N6CCN(S(C)(=O)=O)CC6)CC5)c4c3c2)c1 [Compound 17c] | 7 | 88 | 32.6 | 100 | 23 | 99 | 2 | 52 | 2 | 53 |
| c1cc(-c2ccc3[nH]c4ncnc(N[C@H]5CC[C@H](N6CCOCC6)CC5)c4c3c2)ccn1 [Compound 6aab, N-(trans-4-morpholinocyclohexyl)-6-(pyridin-4-yl)-9H-pyrimido[4,5-b]indole-4-amine] | 44 | 114 | 18.4 | 100 | 31 | 94 | 11 | 54 | 8 | 61 |
| Cn1cc(-c2ccc3[nH]c4ncnc(N[C@H]5CC[C@H](N6CCN(S(C)(=O)=O)CC6)CC5)c4c3c2)cn1 [Compound 6aca, 6-(1-methyl-1H-pyrazol-4-yl)-N-(trans-4-(4-(methylsulfonyl)piperazin-1-yl)cyclohexyl)-9H-pyrimido[4,5-b]indole-4-amine] | 29 | 107 | 13.8 | 100 | 40 | 99 | 23 | 73 | 28 | 85 |
| COc1cncc(-c2ccc3[nH]c4nccc(N[C@H]5CC[C@H](N6CCOCC6)CC5)c4c3c2)c1 [Compound 17b, 6-(5-methoxypyridin-3-yl)-N-(trans-4-morpholinocyclohexyl)-9H-pyrimido[2,3-b]indole-4-amine] | 12 | 63 | 7.2 | 100 | 76 | 110 | 4 | 80 | 14 | 62 |
